# Test results taken from the supplement of paper PMC13380429.
# Key:
# [1] = test system: A549-ACE2 infected with SARS-CoV-2; test: morphology score (similarity to uninfected cells); higher = more like uninfected cells; settings: 24 h
# A549-ACE2 [2] = test: drug-induced phospholipidosis relative to tamoxifen; higher = more phospholipidosis
# [3] = test system: A549-ACE2 infected with SARS-CoV-2; test: cell count relative to DMSO; higher = less toxic; settings: 24 h
# [4] = test system: A549-ACE2 infected with SARS-CoV-2; test: SARS-CoV-2 infection rate relative to DMSO; higher = more infection; settings: 24 h
# U2OS [5] = test: relative viability EC50 (midpoint between 100% and the lowest measured viability); higher = less toxic; settings: 72 h
# Calu-3 [6] = test: as above; settings: 72 h
# Vero E6 [7] = test: as above; settings: 72 h
# HepG2 [8] = test: as above; settings: 72 h
# U2OS [9] = test: drug sensitivity score (DSS) for viability; higher = more toxic; extreme values may be limits of the assay; settings: 72 h
# Calu-3 [10] = test: as above; settings: 72 h
# Caco-2 [11] = test: as above; settings: 72 h
# Vero E6 [12] = test: as above; settings: 72 h
# HepG2 [13] = test: as above; settings: 72 h
# U2OS [14] = test: cell viability relative to DMSO; higher = less toxic; settings: 72 h
# Calu-3 [15] = test: as above; settings: 72 h
# Caco-2 [16] = test: as above; settings: 72 h
# Vero E6 [17] = test: as above; settings: 72 h
# HepG2 [18] = test: as above; settings: 72 h
# A549-ACE2 [19] = test: phospholipidosis EC50; higher = less potent phospholipidosis inducer
# Caco-2 [20] = test: relative viability EC50 (midpoint between 100% and the lowest measured viability); higher = less toxic; settings: 72 h
structure (smiles),measurement,setting,value
CCN(CC)CCCCNc1ncc2cc(-c3cc(OC)cc(OC)c3)c(NC(=O)NC(C)(C)C)nc2n1,morphology score,[1]; 0.1 µM,0.01
same,morphology score,[1]; 0.3 µM,-0.12
same,morphology score,[1]; 1 µM,0.28
same,morphology score,[1]; 3 µM,0.68
same,drug-induced phospholipidosis,"A549-ACE2 [2]; 0.3 µM, 24 h",4.11%
same,drug-induced phospholipidosis,"A549-ACE2 [2]; 0.3 µM, 48 h",4.6%
same,drug-induced phospholipidosis,"A549-ACE2 [2]; 0.3 µM, 72 h",6.12%
same,drug-induced phospholipidosis,"A549-ACE2 [2]; 0.833333 µM, 24 h",13.5%
same,drug-induced phospholipidosis,"A549-ACE2 [2]; 0.833333 µM, 48 h",12.8%
same,drug-induced phospholipidosis,"A549-ACE2 [2]; 0.833333 µM, 72 h",13.2%
same,drug-induced phospholipidosis,"A549-ACE2 [2]; 3.33333 µM, 24 h",106%
same,drug-induced phospholipidosis,"A549-ACE2 [2]; 3.33333 µM, 48 h",151%
same,drug-induced phospholipidosis,"A549-ACE2 [2]; 6.66667 µM, 24 h",165%
same,drug-induced phospholipidosis,"A549-ACE2 [2]; 6.66667 µM, 48 h",224%
same,drug-induced phospholipidosis,"A549-ACE2 [2]; 10 µM, 24 h",234%
same,drug-induced phospholipidosis,"A549-ACE2 [2]; 10 µM, 48 h",200%
same,drug-induced phospholipidosis,"A549-ACE2 [2]; 10 µM, 72 h",168%
same,drug-induced phospholipidosis,"A549-ACE2 [2]; 30 µM, 24 h",84.5%
same,cell count,[3]; 0.1 µM,96%
same,cell count,[3]; 0.3 µM,90%
same,cell count,[3]; 1 µM,103%
same,cell count,[3]; 3 µM,109%
same,SARS-CoV-2 infection rate,[4]; 0.1 µM,105%
same,SARS-CoV-2 infection rate,[4]; 0.3 µM,105%
same,SARS-CoV-2 infection rate,[4]; 1 µM,96%
same,SARS-CoV-2 infection rate,[4]; 3 µM,35%
same,relative viability EC50,U2OS [5],1.58 µM
same,relative viability EC50,Calu-3 [6],> 10 µM
same,relative viability EC50,Vero E6 [7],1.96 µM
same,relative viability EC50,HepG2 [8],2.58 µM
same,drug sensitivity score,U2OS [9],5.4
same,drug sensitivity score,Calu-3 [10],1.1
same,drug sensitivity score,Caco-2 [11],1.2
same,drug sensitivity score,Vero E6 [12],5.2
same,drug sensitivity score,HepG2 [13],3.5
same,cell viability,U2OS [14]; 1 nM,106%
same,cell viability,U2OS [14]; 10 nM,105%
same,cell viability,U2OS [14]; 100 nM,100%
same,cell viability,U2OS [14]; 1000 nM,85.8%
same,cell viability,U2OS [14]; 10000 nM,41.5%
same,cell viability,Calu-3 [15]; 1 nM,98.9%
same,cell viability,Calu-3 [15]; 10 nM,98.9%
same,cell viability,Calu-3 [15]; 100 nM,100%
same,cell viability,Calu-3 [15]; 1000 nM,98.5%
same,cell viability,Calu-3 [15]; 10000 nM,75.6%
same,cell viability,Caco-2 [16]; 1 nM,102%
same,cell viability,Caco-2 [16]; 10 nM,105%
same,cell viability,Caco-2 [16]; 100 nM,103%
same,cell viability,Caco-2 [16]; 1000 nM,103%
same,cell viability,Caco-2 [16]; 10000 nM,69%
same,cell viability,Vero E6 [17]; 1 nM,94.5%
same,cell viability,Vero E6 [17]; 10 nM,97.1%
same,cell viability,Vero E6 [17]; 100 nM,100%
same,cell viability,Vero E6 [17]; 1000 nM,90.1%
same,cell viability,Vero E6 [17]; 10000 nM,35.9%
same,cell viability,HepG2 [18]; 1 nM,91.9%
same,cell viability,HepG2 [18]; 10 nM,101%
same,cell viability,HepG2 [18]; 100 nM,87.9%
same,cell viability,HepG2 [18]; 1000 nM,96.1%
same,cell viability,HepG2 [18]; 10000 nM,45.5%
same,phospholipidosis EC50,A549-ACE2 [19]; 24 h,3.18 µM
same,phospholipidosis EC50,A549-ACE2 [19]; 48 h,3.06 µM
Nc1ccc(C(=O)Nc2cccc(-c3nc(N4CCOCC4)c4oc5ncccc5c4n3)c2)cn1,morphology score,[1]; 0.3 µM,0.31
same,morphology score,[1]; 3 µM,0.45
same,morphology score,[1]; 10 µM,0.08
same,morphology score,[1]; 30 µM,-0.12
same,drug-induced phospholipidosis,"A549-ACE2 [2]; 0.3 µM, 24 h",4.2%
same,drug-induced phospholipidosis,"A549-ACE2 [2]; 0.3 µM, 48 h",8.45%
same,drug-induced phospholipidosis,"A549-ACE2 [2]; 0.3 µM, 72 h",8%
same,drug-induced phospholipidosis,"A549-ACE2 [2]; 0.833333 µM, 24 h",16.4%
same,drug-induced phospholipidosis,"A549-ACE2 [2]; 0.833333 µM, 48 h",22.8%
same,drug-induced phospholipidosis,"A549-ACE2 [2]; 0.833333 µM, 72 h",24.5%
same,drug-induced phospholipidosis,"A549-ACE2 [2]; 3.33333 µM, 24 h",72%
same,drug-induced phospholipidosis,"A549-ACE2 [2]; 3.33333 µM, 48 h",79.6%
same,drug-induced phospholipidosis,"A549-ACE2 [2]; 3.33333 µM, 72 h",107%
same,drug-induced phospholipidosis,"A549-ACE2 [2]; 6.66667 µM, 24 h",146%
same,drug-induced phospholipidosis,"A549-ACE2 [2]; 6.66667 µM, 48 h",121%
same,drug-induced phospholipidosis,"A549-ACE2 [2]; 6.66667 µM, 72 h",162%
same,drug-induced phospholipidosis,"A549-ACE2 [2]; 10 µM, 24 h",132%
same,drug-induced phospholipidosis,"A549-ACE2 [2]; 10 µM, 48 h",135%
same,drug-induced phospholipidosis,"A549-ACE2 [2]; 30 µM, 24 h",202%
same,drug-induced phospholipidosis,"A549-ACE2 [2]; 30 µM, 48 h",188%
same,drug-induced phospholipidosis,"A549-ACE2 [2]; 30 µM, 72 h",231%
same,cell count,[3]; 0.3 µM,100%
same,cell count,[3]; 3 µM,102%
same,cell count,[3]; 10 µM,101%
same,cell count,[3]; 30 µM,78%
same,SARS-CoV-2 infection rate,[4]; 0.3 µM,90%
same,SARS-CoV-2 infection rate,[4]; 3 µM,47%
same,SARS-CoV-2 infection rate,[4]; 10 µM,63%
same,SARS-CoV-2 infection rate,[4]; 30 µM,110%
same,relative viability EC50,Calu-3 [6],> 10 µM
same,relative viability EC50,Caco-2 [20],> 10 µM
same,relative viability EC50,Vero E6 [7],> 10 µM
same,drug sensitivity score,Calu-3 [10],0
same,drug sensitivity score,Caco-2 [11],1.8
same,drug sensitivity score,Vero E6 [12],0
same,drug sensitivity score,HepG2 [13],10.9
same,cell viability,Calu-3 [15]; 1 nM,101%
same,cell viability,Calu-3 [15]; 10 nM,96.1%
same,cell viability,Calu-3 [15]; 100 nM,100%
same,cell viability,Calu-3 [15]; 1000 nM,96.5%
same,cell viability,Calu-3 [15]; 10000 nM,94.8%
same,cell viability,Caco-2 [16]; 1 nM,95.4%
same,cell viability,Caco-2 [16]; 10 nM,97%
same,cell viability,Caco-2 [16]; 100 nM,101%
same,cell viability,Caco-2 [16]; 1000 nM,87.1%
same,cell viability,Caco-2 [16]; 10000 nM,80%
same,cell viability,Vero E6 [17]; 1 nM,99.9%
same,cell viability,Vero E6 [17]; 10 nM,100%
same,cell viability,Vero E6 [17]; 100 nM,96.4%
same,cell viability,Vero E6 [17]; 1000 nM,95.9%
same,cell viability,Vero E6 [17]; 10000 nM,91.9%
same,cell viability,HepG2 [18]; 1 nM,109%
same,cell viability,HepG2 [18]; 10 nM,99.6%
same,cell viability,HepG2 [18]; 100 nM,88.3%
same,cell viability,HepG2 [18]; 1000 nM,50.5%
same,cell viability,HepG2 [18]; 10000 nM,61.6%
same,phospholipidosis EC50,A549-ACE2 [19]; 24 h,6.01 µM
same,phospholipidosis EC50,A549-ACE2 [19]; 48 h,7.56 µM
same,phospholipidosis EC50,A549-ACE2 [19]; 72 h,4.36 µM
